In patent US20100040598A1, “KIT OF PARTS COMPRISING AN ACID LABILE AND AN ACID RESISTANT PHARMACEUTICALLY ACTIVE INGREDIENT” (priority 2006, published 2010):
Read-outs that look alike come from different tables or passages of the source. Each block holds one compound with its values, some of them ahead of it.

Experiments:
[1] = co-administered e.g. with sodium bicarbonate; compared to fasting; cited from earlier work
[2] = Influence of food intake on absorption of clavulanic acid and amoxicillin (plasma pharmacokinetics after test tablet, Comparative Example A); assay type: in vivo, human; conditions: for AUC(0-inf) / Cmax / Tmax: human, plasma, oral, one test tablet
Protocol: An exploratory study involving 9 healthy volunteers receive the test product under fasted and fed conditions. The test product is AUGMENTIN™ XR as commercially available by Glaxosmithkline, and is an extended release tablet containing 1000 mg amoxicillin and 62.5 mg clavulanic acid wherein said tablet consists of a fast release layer comprising 562.5 mg as amoxicillin trihydrate and 62.5 mg clavulanic acid as clavulanate potassium salt, and of an extended release layer containing 437.5 mg amoxicillin as amoxicillin sodium salt. The test tablets are magnetically marked as described in Comparative Example B. The volunteers receive one test tablet together with 240 ml of non-carbonated water under the following conditions:
a) under fasting conditions: on one study day after a fasting period of at least 8 hours, b) at the beginning of a meal: on another study day after the first bite of a high […] standardized breakfast A, and c) under fed conditions: on still another study day 30 minutes after a high fat standardized breakfast B.
The standardized breakfast A consists of 2 slices of bread, 40 g cheese, 150 ml orange juice, 150 ml milk, and 20 g of cereals. The standardized breakfast B consists of 2 eggs fried in butter, 2 strips of bacon, 2 slices of toast with butter, 120 ml of hash brown potatoes and 240 ml of whole milk (3.5% fat).
(§1) Blood samples are taken before and 0.5, 1, 1.5, 2, 2.5, 3, 3.5, 4, 4.5, 5, 5.5, 6, 6.5, 7, 7.5, 8, 8.5, 9, 9.5, 10 and 12 hours after ingestion of the test tablet. Blood samples are centrifuged and stored at −80° C. Concentrations of both amoxicillin and clavulanic acid are determined according to known methods using a LC-MS/MS procedure (HPLC coupled Online with MS). Pharmacokinetic parameters are expressed as Cmax (maximal plasma concentration), AUC0→∞ (area under the plasma concentration-time curve extrapolated to infinity) and tmax (time of peak plasma concentration). Cmax and tmax as figuring in Tables 1 and 2 are determined from the 9 single values directly taken from the plasma-concentration-time curve. AUC0→tlast is calculated as follows: AUC0→∞=AUC0→tlast+AUCtlast→∞ wherein AUC0→tlast is the area under the plasma concentration-time curve from time of administration until time of last quantifiable concentration measured, i.e. Ct, and is calculated by using the linear trapezoid rule. AUCtlast→∞ is the extrapolated area to infinity that equals to Ct/Kel wherein Kel is the elimination rate constant. The results are reported using descriptive statistics.
Tables 1 and 2 show the pharmacokinetic parameters of clavulanic acid and amoxicillin, respectively, determined in human plasma from the blood samples taken after administration of one test tablet under fasting or fed conditions or at the beginning of a meal (values are mean values of 9 volunteers).

[3] = Crossover bioavailability study of tablet B before and tablet A after food intake vs both after food intake (Example 3); assay type: in vivo, human; conditions: data not shown
Protocol: In this study 20 subjects are randomized in balanced manner into 2 sequences. The subjects in the sequence 1 obtain tablet B under fasting conditions and then tablet A 30 minutes after beginning of food intake whereas the subjects in the second sequence are dosed with both tablets (A and B) 30 minutes after beginning of food intake. The extended release tablet A contains 1125 mg amoxicillin whereas tablet B is an immediate release formulation comprising 875 mg as amoxicillin trihydrate and 125 mg clavulanic acid as clavulanate potassium salt. The volunteers receive […] of non-carbonated water to each tablet administered.
The standardized breakfast (before or between the dosing) consists of 2 eggs fried in butter, 2 strips of bacon, 2 slices of toast with butter, 120 ml of hash brown potatoes and 240 ml of whole milk (3.5% fat).
as §1, with “plasma concentration) and” for “plasma concentration),”, “infinity) which” for “infinity) and tmax (time of peak plasma concentration). Cmax and tmax as figuring in Tables 1 and 2”, “determined analogously as described above in comparative example A. Cmax is” for “determined from the 9 single values”, “curve. AUC0→∞” for “curve. AUC0→tlast”, “constant.” for “constant. The results are reported using descriptive statistics.”

[4] = More extensive study involving 70 volunteers with conventional test tablet without magnetic markers; assay type: in vivo, human; conditions: test tablet at the beginning of a meal, data not shown
Protocol: If a conventional combination of an acid labile active ingredient such as clavulanic acid and of an acid resistant active ingredient such as amoxicillin is administered according to a conventional scheme, namely both active ingredients simultaneously, concomitant food intake seems to strongly influence the plasma concentrations and thus bioavailability of the 2 active ingredients. This has been observed in the herein described exploratory study for a conventional combination in the form of a bilayer tablet comprising clavulanic acid for immediate release and amoxicillin for both immediate and extended release such as the herein described test tablet.

Compound: COc1ccc2[nH]c([S+]([O-])Cc3ncc(C)c(OC)c3C)nc2c1 (stereo not shown) [omeprazole]
- Bioavailability, effect of food ingestion [1]: reduces bioavailability

- AUC of amoxicillin ([2]; fasting conditions compared with fed conditions): significantly reduced
- Plasma concentrations of amoxicillin (FIG. 2): absorption ([2]; fed conditions compared with fasting conditions): delayed absorption
- tmax of amoxicillin ([2]; fed conditions compared with fasting or beginning of a meal): significantly delayed
- AUC(0-inf) ([2]; amoxicillin in human plasma, at the beginning of a meal, read-out: AUC0→∞, mean value ± s (converted)): 40900 ng·h/mL
- AUC(0-inf) ([2]; amoxicillin in human plasma, at the beginning of a meal, read-out: AUC0→∞, median (converted)): 39100 ng·h/mL
- Cmax ([2]; amoxicillin in human plasma, at the beginning of a meal, read-out: Cmax, mean value ± s): 10400 ± 2000 ng/mL
- Cmax ([2]; amoxicillin in human plasma, at the beginning of a meal, read-out: Cmax, median): 9870 ng/mL
- Tmax ([2]; amoxicillin in human plasma, at the beginning of a meal, read-out: tmax, mean value ± s (converted)): ~1.38 h
- Tmax ([2]; amoxicillin in human plasma, at the beginning of a meal, read-out: tmax, median (converted)): 1 h
- AUC(0-inf) ([2]; amoxicillin in human plasma, fasting conditions, 9 volunteers, read-out: AUC0→∞, mean value ± s (converted)): 30900 ng·h/mL
- AUC(0-inf) ([2]; amoxicillin in human plasma, fasting conditions, read-out: AUC0→∞, median (converted)): 29000 ng·h/mL
- Cmax ([2]; amoxicillin in human plasma, fasting conditions, read-out: Cmax, mean value ± s): 10300 ± 1200 ng/mL
- Cmax ([2]; amoxicillin in human plasma, fasting conditions, read-out: Cmax, median): 10300 ng/mL
- Tmax ([2]; amoxicillin in human plasma, fasting conditions, read-out: tmax, mean value ± s (converted)): ~1.5 h
- Tmax ([2]; amoxicillin in human plasma, fasting conditions, read-out: tmax, median (converted)): 1.5 h
- AUC(0-inf) ([2]; amoxicillin in human plasma, fed conditions (30 minutes after high fat breakfast), read-out: AUC0→∞, mean value ± s (converted)): 43400 ng·h/mL
- AUC(0-inf) ([2]; amoxicillin in human plasma, fed conditions, read-out: AUC0→∞, median (converted)): 42100 ng·h/mL
- Cmax ([2]; amoxicillin in human plasma, fed conditions, read-out: Cmax, mean value ± s): 9880 ± 2300 ng/mL
- Cmax ([2]; amoxicillin in human plasma, fed conditions, read-out: Cmax, median): 9830 ng/mL
- Tmax ([2]; amoxicillin in human plasma, fed conditions, read-out: tmax, mean value ± s (converted)): 2.28 h
- Tmax ([2]; amoxicillin in human plasma, fed conditions, read-out: tmax, median (converted)): 1.5 h
- Maximum plasma concentrations Cmax of amoxicillin ([2]; test tablet after food intake compared with fasting): slightly lower
- Plasma level of amoxicillin (duration) ([3]; condition a) vs condition b)): slightly prolonged
Compound: CC1(C)S[C@@H]2[C@H](NC(=O)[C@H](N)c3ccc(O)cc3)C(=O)N2[C@H]1C(=O)O [amoxicillin]
- AUC of amoxicillin ([2]; at the beginning of a meal compared with fasting and fed state): lies in between that observed for the fasting and for the fed state
- Initial maximum plasma concentrations Cmax of amoxicillin ([3]; condition a) vs condition b)): higher initial maximum plasma concentrations

- Cmax and AUC of clavulanic acid ([2]; fed state compared with fasting conditions): significantly reduced
- AUC(0-inf) ([2]; clavulanic acid in human plasma, at the beginning of a meal, read-out: AUC0→∞, mean value ± s (converted)): 3280 ng·h/mL
- AUC(0-inf) ([2]; clavulanic acid in human plasma, at the beginning of a meal, read-out: AUC0→∞, median (converted)): 2880 ng·h/mL
- Cmax ([2]; clavulanic acid in human plasma, at the beginning of a meal, read-out: Cmax, mean value ± s): 1390 ± 400 ng/mL
- Cmax ([2]; clavulanic acid in human plasma, at the beginning of a meal, read-out: Cmax, median): 1240 ng/mL
- Tmax ([2]; clavulanic acid in human plasma, at the beginning of a meal, read-out: tmax, mean value ± s (converted)): 1.38 h
- Tmax ([2]; clavulanic acid in human plasma, at the beginning of a meal, read-out: tmax, median (converted)): 1.5 h
- AUC(0-inf) ([2]; clavulanic acid in human plasma, fasting conditions, 9 volunteers, read-out: AUC0→∞, mean value ± s (converted)): 3300 ng·h/mL
- Cmax ([2]; clavulanic acid in human plasma, fasting conditions, 9 volunteers, read-out: Cmax, mean value ± s): 1400 ± 400 ng/mL
- Tmax ([2]; clavulanic acid in human plasma, fasting conditions, 9 volunteers, read-out: tmax, mean value ± s (converted)): ~1.5 h
- AUC(0-inf) ([2]; clavulanic acid in human plasma, fasting conditions, read-out: AUC0→∞, median (converted)): 3020 ng·h/mL
- Cmax ([2]; clavulanic acid in human plasma, fasting conditions, read-out: Cmax, median): 1350 ng/mL
- Tmax ([2]; clavulanic acid in human plasma, fasting conditions, read-out: tmax, median (converted)): 1.5 h
- AUC(0-inf) ([2]; clavulanic acid in human plasma, fed conditions (30 minutes after high fat breakfast), read-out: AUC0→∞, mean value ± s (converted)): 2200 ng·h/mL
- AUC(0-inf) ([2]; clavulanic acid in human plasma, fed conditions, read-out: AUC0→∞, median (converted)): 2080 ng·h/mL
- Cmax ([2]; clavulanic acid in human plasma, fed conditions, read-out: Cmax, mean value ± s): 970 ± 600 ng/mL
- Cmax ([2]; clavulanic acid in human plasma, fed conditions, read-out: Cmax, median): 830 ng/mL
- Tmax ([2]; clavulanic acid in human plasma, fed conditions, read-out: tmax, mean value ± s (converted)): 2.07 h
- Tmax ([2]; clavulanic acid in human plasma, fed conditions, read-out: tmax, median (converted)): 2 h
- Plasma concentrations of clavulanic acid (FIG. 1) ([2]; test tablet taken after a meal (breakfast B) compared with fasting): significantly reduced
- Plasma concentrations of clavulanic acid ([3]; condition a) tablet B fasting, tablet A 30 minutes after beginning of food intake, vs b) both tablets 30 minutes after beginning of food intake): significantly higher
- Cmax and AUC0→∞ of clavulanic acid ([3]; condition a) vs condition b)): significantly higher
- Bioavailability of clavulanic acid [4]: slightly decreased
Compound: O=C(O)[C@H]1/C(=C/CO)O[C@@H]2CC(=O)N21 [clavulanic acid]
